Measured values published in US5338550A, “Stereoisomer therapy” (priority 1992, dated 1994).
In brackets after ≈: the same amount, converted by molar mass.

Legend:
Crystal lattice energy = assay type: physicochemical
[1] = Density (bulk, tapped, tablet); assay type: physicochemical
Protocol: Next, the granulations are fed to a Manesty layer press fitted with two hoppers, one hopper is filled with the slow-layer granulation, the other hopper is filled with the fast-layer granulation. A bilayer tablet dosage form is then compressed by first forming a 690 mg second layer, then a 230 mg first layer is pressed in release retaining relation to the second layer. The first layer and second layers are pressed together under a pressure head of two tons. This manufacturing process produces the bilayer dosage form. […] The final composition of the second layer comprises 58 wt % racemic (±) ibuprofen, 15 wt % hydroxypropylmethylcellulose having a 242,000 molecular weight, 25 wt % hydroxypropylmethylcellulose having a 9,200 molecular weight and 2 wt % stearic acid.

| crystal lattice energy (Crystal lattice energy) | bulk density [1] | tablet density [1] | tapped density [1] | solubility (physchem; artificial gastric juice) | solubility (physchem; artificial intestinal juice) | solubility (physchem; water) | Compound |
| --- | --- | --- | --- | --- | --- | --- | --- |
| 90.3 joules/g | 0.277 g/cc | 1.038 g/cc | 0.391 g/cc | 131 µg/mL (≈ 635 µM) | 6980 µg/mL (≈ 33800 µM) | 134 µg/mL (≈ 650 µM) | CC(C)Cc1ccc([C@H](C)C(=O)O)cc1 [S(+) ibuprofen] |
| 117 joules/g | 0.328 g/cc | 1.052 g/cc | 0.483 g/cc | 79 µg/mL (≈ 383 µM) | 5910 µg/mL (≈ 28600 µM) | 82 µg/mL (≈ 398 µM) | CC(C)Cc1ccc(C(C)C(=O)O)cc1 (racemic) [racemic ibuprofen] |
